# Data reported in US20210400981A1, “ANTIMICROBIAL OZONE COMPOSITIONS AND METHODS OF USE THEREOF” (priority 2018, published 2021).
# Legend:
# [1] = tested on: S. aureus subspecies aureus Rosenbach, strain FDA 209; assay: ASTM E1153-14 glass coupon test, 5 min treatment, CFU plate counts; assay type: cell-based, Staphylococcus aureus
# Description: A freeze-dried stock of Staphylococcus (S. aureus subspecies aureus Rosenbach, strain FDA 209) was obtained from American Type Culture Collection (ATCC, Manassas, Va.). After rehydration and growth in appropriate culture medium (Staphylococcus: BD Tryptic soy broth lot #4335611), both plated stocks and stocks frozen in glycerol were created. Staphylococcus was qualified for absorbance at 600 nm versus colony forming units (CFU) by serially diluting inoculum and reading absorbance followed by plating of dilutions onto agar plates. […] Twenty microliters of the resulting inoculum were used to coat glass slides (Fisher), also known as test squares or coupons with 10^5 to 10^7 cells, as calculated from the standard curve generated from the absorbance qualification data, and allowed to dry in a 37° C. incubator for 40 minutes following ASTM E1153-14 (www.astm.org/Standards/E1153.htm). […]
# After incubation for 5 minutes following ASTM E1153-14, the supernatant in the vial was sampled and placed on test agar plates at a volume of 0.2 ml. […] Colony forming units (CFU) for each plate were counted, recorded and averaged for each sample. […] Sample CFUs were analyzed for statistical significance using the Mann Whitney U test with significance level α=0.05. […]
# Klebsiella = assay: Test coupons coated with Klebsiella, CFU reduction versus water; details: acetate buffer with or without 1.5 ppm aqueous ozone
# Salmonella enterica = assay: Test coupons coated with Salmonella enterica, CFU reduction versus water; assay type: cell-based; details: 0.05M acetate buffer with or without 1.5 ppm aqueous ozone
# [2] = Ability of the buffer to accept aqueous ozone (kiosk sensors and instrumentation); assay type: physicochemical; details: buffer at approximate pH 5.5 to 6, ozonated with the CCT 1.0 kiosk
# Text: Additionally, not all buffering compounds are suitable or effective for use as additives. […] The MES and ascorbate buffers were unable to accommodate the addition of aqueous ozone, showing no ozone in the resulting solution according to the kiosk sensors and instrumentation.
# [3] = cited from earlier work
# [4] = humans, after exposure; cited from earlier work
# [5] = tested on: Staphylococcus aureus subspecies aureus Rosenbach, strain FDA 209; assay: AOAC method (961.02) spray disinfection of glass coupons, 10 min, turbidity (+/-) in Letheen broth; assay type: cell-based; details: for coupons negative: range-finding; for Percent kill / Number− / Number+: 10 min; for Number−: negative coupons; for Number+: positive coupons
# Text: A freeze-dried stock of Staphylococcus (Staphylococcus aureus subspecies aureus Rosenbach, strain FDA 209), as specified by the AOAC method (961.02), was obtained from ATCC. After rehydration and growth in appropriate culture medium (BD Tryptic soy broth lot #4335611), both plated stocks and stocks frozen in glycerol were created. Staphylococcus was quantified for absorbance at 600 nm versus colony forming units (CFU) by serially diluting inoculum and reading absorbance followed by plating of dilutions onto agar plates. Prior to aqueous ozone testing, growth medium was inoculated and incubated in a shaker incubator (New Brunswick Scientific, serial #890615130) at 37° C. for 24 hours and then transfer cultured two additional times with a final incubation of 48 hours. Twenty microliters of the resulting inoculum was used to coat glass slides (Fisher), also known as test squares or coupons, with 10^5 to 10^7 cells, as calculated from the standard curve generated from the absorbance qualification data, and allowed to dry in a 37° C. incubator for 40 minutes following ASTM E1153-14. After drying, treated coupons were sequentially treated with 1.5 or 4 ppm aqueous ozone alone, 1.5 or 4 ppm aqueous ozone combined with a predetermined dilution of PAA, or PAA alone, then incubated for 10 minutes at room temperature. Additionally, immediately before and after testing three inoculated untreated coupons were place in labeled 50 ml conical tubes containing 20 ml of Letheen broth, vortexed, pooled, and plated to provide carrier counts. The mean log 10 density (LD) of the carrier counts for S. aureus must be between 5.0 and 6.5 in order for the test to be valid in this method.
# Briefly, aqueous ozone was generated using the free standing CCT 1.0 unit (mounted in a kiosk enclosure) at a concentration of 1.5 ppm or 4 ppm. The water source utilized by the CCT 1.0 was clean, cold, softened Omaha municipal tap water. […] Aqueous ozone was sterile collected in a biological safety cabinet before and used immediately. Treatments were applied to the appropriate freshly prepared coupons contained within labeled petri dishes using a sprayer provided by CleanCore.
# Following the testing period, coupons were removed from the individual petri dishes and transferred to corresponding labeled 50 ml conical tubes containing 20 ml of Letheen broth. One sterile un-inoculated coupon and one inoculated untreated coupon were also transferred to separate labeled 50 ml conical tubes containing 20 ml of Letheen broth in order to provide sterility and viability controls, respectively. All testing vials were shaken then incubated at 36±1° C. for 48±2 hours, then visually assessed for turbidity(+). Positive sample vials were plated to determine colony morphology similarity to test organism. All test plates were plated with 0.2 ml spread onto 2 replicates using a glass spreader and a Bel-Art inoculating turntable. Results of testing were analyzed for statistical significance in SPSS using a McNemar exact test for dichotomous data, with a significance level of α=0.05.
# Campylobacter jejuni = assay: Antimicrobial spray on inoculated chicken carcasses, rinsate plate counts; assay type: cell-based
# Description: (§1) Briefly, chicken carcasses (70 whole hen carcasses for 7 treatments and 10 replications) were inoculated with 400 mL of a cocktail containing Salmonella Typhimurium (UK-1), E. coli (J53), and Campylobacter jejuni (3×10^7 CFU/mL) and allowed to adhere for 60 minutes at 4° C. for a final concentration of 10^5-10^6 CFU/g. Chicken carcasses then received no treatment (negative control) or were then treated by spraying (4×5 seconds) with tap water, tap water with 10 ppm ozone, tap water with PAA (50 ppm), tap water with PAA (500 ppm), tap water with 10 ppm ozone and PAA (500 ppm), or tap water with 10 ppm ozone and PAA (50 ppm). Further, the ambient PAA was measured using a PAA specific sensor during treatment. After treatment, chicken carcasses were rinsed in 400 mL of neutralizing buffered peptone water (20.0 g of buffered peptone, 7 g of refined soy lecithin or equivalent, 1.0 g of sodium thiosulfate, 12.5 g of sodium bicarbonate, per 1 liter of deionized water) for 2 minutes with agitation. Subsequently, the rinsate was serially diluted, spread plated on Xylose Lysine Deoxycholate (XLD) and Blood Free Campylobacter Agar (BFCA; modified Charcoal-Cefoperazone-Deoxycholate agar (mCCDA)), and incubated aerobically at 37° C. for 24 hours and microaerophilic at 42° C. for 48 hours, respectively. Log-transformed counts were analyzed using one-way ANOVA in JMP 14.0. Means were separated using Tukey's HSD when P≤0.05.
# [6] = tested on: Salmonella Typhimurium (UK-1); assay: as above; assay type: cell-based; details: spray 4x5 seconds; 500 ppm PAA with or without 10 ppm ozone
# Description: as §1
# [7] = Table 16A, 1.5 ppm ozone and/or 15 ppm PAA
# [8] = Table 16B, 4 ppm ozone and/or 15 ppm PAA
# [9] = Table 16C, 1.5 ppm ozone and/or 10 ppm PAA
# [10] = Table 16D, 1.5 ppm ozone and/or 20 ppm PAA, three experiments
smiles,measurement,setting,value
CC(=O)O [Acetic acid],"log reduction of S. aureus CFU post treatment, compared to a water control",[1]; 0.05M acetate buffer with or without 1.5 ppm aqueous ozone,less than 1 log
same,reduction versus water,"[1]; acetate buffer alone, no ozone",66.92%
same,log reduction in Klebsiella CFU versus the water control,Klebsiella,1 log
same,log reduction of Salmonella CFU versus water,Salmonella enterica,1 log
O=C1O[C@H]([C@@H](O)CO)C(O)=C1O [Ascorbic acid],ozone in the resulting buffered solution,[2],no ozone
O=C(O)CC(O)(CC(=O)O)C(=O)O [Citric acid],ozone in the resulting buffered solution,[2],did accept ozonation
"O=S(=O)(O)CCN1CCOCC1 [MES, 2-(N-morpholino) ethane sulfonic acid]",ozone in the resulting buffered solution,[2],no ozone
O=C(O)C(=O)O [Oxalic acid],ozone in the resulting buffered solution,[2],did accept ozonation
same,pKa (second value),[3],4.40
"CC(=O)OO [PAA, peracetic acid]",PAA level that can cause irritation to the upper respiratory tract,[4],5 ppm
same,coupons negative,[5]; PAA 10 ppm in sterile water,3 out of 10 coupons
same,coupons negative,[5]; PAA 25 ppm in sterile water,6 out of 10 coupons
same,coupons negative,[5]; PAA 50 ppm in sterile water,9 out of 10 coupons
same,coupons negative,[5]; PAA 100 ppm in sterile water,9 out of 10 coupons
same,Percent kill,[5]; [7],76.7%
same,Number−,[5]; [7],23
same,Number+,[5]; [7],7
same,Percent kill,[5]; [8],73.3%
same,Number−,[5]; [8],22
same,Number+,[5]; [8],8
same,Percent kill,[5]; [9],6.7%
same,Number−,[5]; [9],2
same,Number+,[5]; [9],28
same,Percent kill,[5]; [10],87.8%
same,Number−,[5]; [10],79
same,Number+,[5]; [10],11
same,log CFU per gram of C. jejuni on carcasses,"Campylobacter jejuni; spray 4x5 seconds, 500 ppm PAA with or without 10 ppm ozone",4.81 log CFU/g
same,effect on Campylobacter compared to untreated controls,"Campylobacter jejuni; spray on chicken carcasses, P≤0.05",significantly reduced
same,log CFU per gram of Salmonella on carcasses,[6],5.86 log CFU/g
"O=[O+][O-] [aqueous ozone, ozone]",Percent kill,[5]; [7],0.0%
same,Number−,[5]; [7],0
same,Number+,[5]; [7],30
same,Percent kill,[5]; [8],0.0%
same,Number−,[5]; [8],0
same,Number+,[5]; [8],30
same,Percent kill,[5]; [9],0.0%
same,Number−,[5]; [9],0
same,Number+,[5]; [9],30
same,Percent kill,[5]; [10],0.0%
same,Number−,[5]; [10],0
same,Number+,[5]; [10],90
